The values below come from patent EP4610262A1, “MACROCYCLIC COMPOUND AS CDK9 INHIBITOR AND USE THEREOF” (Artivila Biopharma, priority 2022, dated 2024).

Like-named read-outs stand apart in the source and are kept apart here.

One test concerns the target CDK9 (Homo sapiens, UniProt P50750). Kind of test: Inhibition of CDK9 kinase activity (caliper mobility shift assay). It is filed as biochemical. As to conditions: for inhibition at 0.01 µM: compound at 10 nM. The method, then: (§1) Compounds were tested at a concentration of 10 nM with detection in duplicate wells, or tested at 10 concentrations starting from 10 µM with three-fold serial dilutions, with detection in duplicate wells.
(§2) The inhibitory effect of the compounds on the activity of CDK9 protein kinase was detected by the caliper mobility shift assay method. 250 nL of the compound at 100-fold final concentration was transferred to a target 384-well-plate with a dispenser Echo 550. A kinase solution at 2.5-fold final concentration was prepared using 1× kinase buffer. 10 µL of the kinase solution at 2.5-fold final concentration was added to the compound well and positive control well respectively. 10 µL of 1× kinase buffer was added to the negative control well. The 384-well plate was centrifuged at 1000 rpm for 30 seconds and incubated at room temperature for 10 minutes. A mixed solution of ATP and kinase substrate at 5/3-fold final concentration was prepared with 1× kinase buffer, and to the 384-well plate was added with 15 µL per well of the mixed solution of ATP and substrate at 5/3-fold final concentration to start the reaction. The plate was centrifuged at 1000 rpm for 30 seconds, shaken to mix evenly, and incubated at room temperature for a corresponding time. 30 µL of detection stopping solution was added to terminate the kinase reaction. The 384-well plate was centrifuged at 1000 rpm for 30 seconds and shaken to mix evenly. The conversion rate was read with Caliper EZ Reader. The percent conversion inhibition rate = (% positive control conversion rate mean - % sample conversion rate / (% positive control conversion rate mean - % negative control conversion rate mean). Among them: negative control wells represent the conversion rate readings of kinase buffer background wells; positive control wells represent the conversion rate readings of wells without inhibition by compound. With the log value of concentration as the x-axis and the percentage inhibition rate as the y-axis, a dose-response curve was fitted using the log (inhibitor) vs. response -Variable slope of the analysis software GraphPad Prism 5 to obtain the IC50 value of each compound on enzyme activity. Calculation formula: y=Bottom + (Top-Bottom)/(1+10^((LogIC50-x) × hillslope)), x: logarithm of inhibitor concentration; y: % inhibition rate.

In another test the target is CDK7 (Homo sapiens, UniProt P50613). Kind of test: Kinase selectivity, inhibition rate at 10 nM (caliper mobility shift assay). It is filed as biochemical. As to conditions: compound at 10 nM. The procedure: as §1, §2
(§3) According to the description of the above experiment on kinase activity inhibition, some compounds were tested for their selective inhibition rate against the kinases of CDK7, CDK9, JAK1, JAK2, JAK3, ITK, RET, TYK2, and LRRK2 at 10 nM. The results are shown in Table 3 below: (Inhibition rate range: A>50%; B: 25-49%; C: <25%): […]

In another test the target is ITK (Homo sapiens, UniProt Q08881). The test is described as above. As to conditions: compound at 10 nM. It is filed as biochemical. The procedure: as §1, §2, §3
Another test has as its target JAK1 (Homo sapiens, UniProt P23458). The test is described as above. The conditions noted are these: compound at 10 nM. It is filed as biochemical. The procedure: as §1, §2, §3
The next test has as its target JAK2 (Homo sapiens, UniProt O60674). The test is described as above. Format: biochemical. The conditions noted are these: compound at 10 nM. The method, then: as §1, §2, §3
The next test concerns the target JAK3 (Homo sapiens, UniProt P52333). The description is as above. It is filed as biochemical. The conditions noted are these: compound at 10 nM. The method, then: as §1, §2, §3
The target in a further test is LRRK2 (Homo sapiens, UniProt Q5S007). The test is described as above. It is filed as biochemical. As to conditions: compound at 10 nM. The method, then:
as §1, §2, §3

Another test has as its target RET (Homo sapiens, UniProt P07949). The test is described as above. It is filed as biochemical. The conditions noted are these: compound at 10 nM. The procedure:
as §1, §2, §3

Another test addresses TYK2 (Homo sapiens, UniProt P29597). Described as above. Format: biochemical. The conditions noted are these: compound at 10 nM. The method, then:
as §1, §2, §3

In a further test the test system is A375. Kind of test: CDK9 cell activity assay, cell growth inhibition (CellTiter-Glo, 72 hours). Format: cell-based. As to conditions: Homo sapiens, A-375. The procedure: (§4) In the CDK9 cell activity assay, the cell line MV-4-11 was cultured in IMDM culture medium containing 10% fetal bovine serum (containing 100 U/mL penicillin and 0.1 g/L streptomycin); the cell line HCC1187 was cultured in RPMI-1640 culture medium containing 10% fetal bovine serum (containing 100 U/mL penicillin and 0.1 g/L streptomycin); the cell line Mia Paca-2 was cultured in DMEM containing 10% fetal bovine serum and 2.5% horse serum (containing 100 U/mL penicillin and 0.1 g/L streptomycin); and the cell line A375 was cultured in RPMI-1640 culture medium containing 10% fetal bovine serum (containing 100 U/mL penicillin and 0.1 g/L streptomycin). All cells were cultured in an incubator with saturated humidity at 37°C with 5% CO2.
(§5) When MV-4-11 cells, HCC1187 cells, Mia Paca-2 cells, and A375 cells grew to 80%-90% confluence, they were digested with trypsin, resuspended, counted, and diluted to a certain cell density with complete medium. 100 µL of the cells was plated into each well of a 96-well plate, and the complete medium was used as a background control. The cells were cultured overnight in an incubator with saturated humidity at 37°C with 5% CO2. The compounds were diluted with DMSO to a final concentration of 200×. 3 µL of the stock solution of the above compounds in DMSO was added to 197 µL of complete medium, and 50 µL of the compound diluted in the medium was added to the cells of each well. The cells were cultured in an incubator with saturated humidity at 37°C with 5% CO2 for 72 hours. After 72 hours, the culture plates were placed at room temperature for equilibrium. 40 µL of CellTiter-Glo® reagent was added to each well. The plate was mixed evenly on a shaker for 2 minutes to lyse the cells then incubated at room temperature for 60 minutes to stabilize the chemiluminescent signal, and the chemiluminescence was read using a PE EnVision microplate reader. The inhibition rate on cell growth was calculated as % Inh = (DMSO well - compound treatment well) / (DMSO well - background well) x 100, and fitting was performed using GraphPad Prism 5 to obtain the IC50 values against cell growth.
In general terms: ATP-based viability assays read luminescence as a measure of living cells.

Another test deals with HCC1187. The description is as above. It is filed as cell-based. The conditions noted are these: Homo sapiens. The procedure:
as §4, §5

The next test concerns MV-4-11. The test is described as above. It is filed as cell-based. The conditions noted are these: Homo sapiens, MV4-11. The procedure:
as §4, §5

A further test deals with Mia-Paca-2. The description is as above. It is filed as cell-based. The conditions noted are these: Homo sapiens. The method, then: as §4, §5

Sequence of CDK9 (P50750 whole entry): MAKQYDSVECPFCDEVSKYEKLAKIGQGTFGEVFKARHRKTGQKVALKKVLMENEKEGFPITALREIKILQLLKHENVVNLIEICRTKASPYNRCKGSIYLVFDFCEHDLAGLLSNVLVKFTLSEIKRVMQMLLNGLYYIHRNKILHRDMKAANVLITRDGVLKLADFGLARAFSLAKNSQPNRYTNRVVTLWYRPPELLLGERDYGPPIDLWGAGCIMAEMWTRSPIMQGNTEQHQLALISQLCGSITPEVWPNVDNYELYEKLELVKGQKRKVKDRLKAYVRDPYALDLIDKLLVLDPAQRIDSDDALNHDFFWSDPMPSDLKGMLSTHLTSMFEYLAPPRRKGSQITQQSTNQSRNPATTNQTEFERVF
Sequence of CDK9 (O60563 whole entry partner): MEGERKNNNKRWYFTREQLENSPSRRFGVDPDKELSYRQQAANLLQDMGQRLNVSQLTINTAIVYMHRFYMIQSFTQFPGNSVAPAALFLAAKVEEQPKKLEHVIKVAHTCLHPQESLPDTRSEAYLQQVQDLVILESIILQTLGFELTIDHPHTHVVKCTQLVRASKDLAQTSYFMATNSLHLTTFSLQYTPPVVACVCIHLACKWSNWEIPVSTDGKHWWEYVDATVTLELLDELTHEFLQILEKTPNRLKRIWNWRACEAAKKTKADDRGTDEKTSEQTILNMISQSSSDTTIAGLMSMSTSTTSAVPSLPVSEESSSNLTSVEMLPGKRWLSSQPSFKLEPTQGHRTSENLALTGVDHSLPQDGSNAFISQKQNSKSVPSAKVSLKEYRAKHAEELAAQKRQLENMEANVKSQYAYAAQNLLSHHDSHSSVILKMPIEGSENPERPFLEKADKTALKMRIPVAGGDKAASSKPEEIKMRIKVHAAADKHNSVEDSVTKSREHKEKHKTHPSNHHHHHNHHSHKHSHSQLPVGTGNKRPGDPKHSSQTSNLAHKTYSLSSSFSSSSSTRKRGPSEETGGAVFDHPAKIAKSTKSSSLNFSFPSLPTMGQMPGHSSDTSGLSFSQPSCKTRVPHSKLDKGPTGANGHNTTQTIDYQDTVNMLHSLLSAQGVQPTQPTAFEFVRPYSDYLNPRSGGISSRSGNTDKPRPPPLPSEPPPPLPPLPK
Sequence of JAK3 (P52333 whole entry): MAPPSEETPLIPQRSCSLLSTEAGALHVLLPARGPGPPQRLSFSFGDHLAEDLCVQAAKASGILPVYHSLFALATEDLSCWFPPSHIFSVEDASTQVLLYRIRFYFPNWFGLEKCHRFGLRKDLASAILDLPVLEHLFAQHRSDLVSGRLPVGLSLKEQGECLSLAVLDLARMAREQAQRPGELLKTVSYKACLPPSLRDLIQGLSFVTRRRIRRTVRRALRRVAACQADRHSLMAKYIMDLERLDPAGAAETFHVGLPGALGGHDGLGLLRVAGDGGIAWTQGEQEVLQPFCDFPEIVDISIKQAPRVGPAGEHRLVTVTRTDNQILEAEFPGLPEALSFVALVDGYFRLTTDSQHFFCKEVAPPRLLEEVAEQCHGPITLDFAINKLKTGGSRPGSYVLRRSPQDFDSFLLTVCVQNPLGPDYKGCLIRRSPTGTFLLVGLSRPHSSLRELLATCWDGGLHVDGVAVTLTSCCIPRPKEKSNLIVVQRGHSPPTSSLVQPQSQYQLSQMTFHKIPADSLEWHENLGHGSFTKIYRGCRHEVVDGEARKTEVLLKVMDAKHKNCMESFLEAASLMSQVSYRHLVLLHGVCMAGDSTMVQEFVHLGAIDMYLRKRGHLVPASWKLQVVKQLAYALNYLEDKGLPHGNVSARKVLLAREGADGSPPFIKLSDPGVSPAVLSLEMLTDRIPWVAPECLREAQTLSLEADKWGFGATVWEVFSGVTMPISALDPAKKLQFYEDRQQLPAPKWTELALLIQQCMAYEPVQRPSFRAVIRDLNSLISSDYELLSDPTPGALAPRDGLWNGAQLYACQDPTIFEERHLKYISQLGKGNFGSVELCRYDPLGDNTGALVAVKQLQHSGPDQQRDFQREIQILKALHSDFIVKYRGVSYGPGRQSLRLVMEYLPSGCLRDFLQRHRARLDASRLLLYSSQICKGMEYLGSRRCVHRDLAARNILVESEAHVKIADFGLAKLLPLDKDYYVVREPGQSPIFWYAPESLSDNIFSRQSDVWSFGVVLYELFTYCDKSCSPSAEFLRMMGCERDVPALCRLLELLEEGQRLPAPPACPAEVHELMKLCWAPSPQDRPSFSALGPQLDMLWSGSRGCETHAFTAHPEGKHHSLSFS
Sequence of JAK2 (O60674 whole entry): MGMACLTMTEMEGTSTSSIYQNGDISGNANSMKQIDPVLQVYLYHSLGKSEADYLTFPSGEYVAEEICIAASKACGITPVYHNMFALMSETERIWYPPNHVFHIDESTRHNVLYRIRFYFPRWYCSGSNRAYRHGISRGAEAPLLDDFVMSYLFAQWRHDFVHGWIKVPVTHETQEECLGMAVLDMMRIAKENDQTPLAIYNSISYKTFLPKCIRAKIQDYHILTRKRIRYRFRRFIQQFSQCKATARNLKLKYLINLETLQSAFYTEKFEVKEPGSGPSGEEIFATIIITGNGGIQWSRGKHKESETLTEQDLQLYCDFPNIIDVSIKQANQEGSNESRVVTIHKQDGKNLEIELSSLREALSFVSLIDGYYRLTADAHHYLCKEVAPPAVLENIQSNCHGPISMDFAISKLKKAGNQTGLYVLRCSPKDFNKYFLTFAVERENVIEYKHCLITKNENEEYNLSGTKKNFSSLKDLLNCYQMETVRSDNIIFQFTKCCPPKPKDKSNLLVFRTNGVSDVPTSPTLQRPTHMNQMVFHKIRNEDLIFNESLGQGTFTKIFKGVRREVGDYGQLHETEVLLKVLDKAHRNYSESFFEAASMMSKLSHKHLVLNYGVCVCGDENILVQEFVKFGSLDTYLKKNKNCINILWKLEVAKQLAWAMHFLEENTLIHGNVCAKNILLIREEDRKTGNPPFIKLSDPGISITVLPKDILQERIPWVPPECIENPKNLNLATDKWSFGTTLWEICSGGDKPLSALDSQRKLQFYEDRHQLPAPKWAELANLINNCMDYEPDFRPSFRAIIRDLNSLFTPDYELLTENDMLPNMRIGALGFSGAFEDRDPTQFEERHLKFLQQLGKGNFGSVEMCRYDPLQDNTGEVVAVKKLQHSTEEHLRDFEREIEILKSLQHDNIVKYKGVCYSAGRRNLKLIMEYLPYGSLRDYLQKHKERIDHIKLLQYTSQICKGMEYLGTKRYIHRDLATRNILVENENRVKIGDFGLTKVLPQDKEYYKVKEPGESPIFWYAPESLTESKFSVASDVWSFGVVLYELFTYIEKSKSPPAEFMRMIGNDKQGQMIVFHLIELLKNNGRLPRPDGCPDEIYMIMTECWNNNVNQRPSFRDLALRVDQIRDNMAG
Sequence of RET (P07949 29-1114): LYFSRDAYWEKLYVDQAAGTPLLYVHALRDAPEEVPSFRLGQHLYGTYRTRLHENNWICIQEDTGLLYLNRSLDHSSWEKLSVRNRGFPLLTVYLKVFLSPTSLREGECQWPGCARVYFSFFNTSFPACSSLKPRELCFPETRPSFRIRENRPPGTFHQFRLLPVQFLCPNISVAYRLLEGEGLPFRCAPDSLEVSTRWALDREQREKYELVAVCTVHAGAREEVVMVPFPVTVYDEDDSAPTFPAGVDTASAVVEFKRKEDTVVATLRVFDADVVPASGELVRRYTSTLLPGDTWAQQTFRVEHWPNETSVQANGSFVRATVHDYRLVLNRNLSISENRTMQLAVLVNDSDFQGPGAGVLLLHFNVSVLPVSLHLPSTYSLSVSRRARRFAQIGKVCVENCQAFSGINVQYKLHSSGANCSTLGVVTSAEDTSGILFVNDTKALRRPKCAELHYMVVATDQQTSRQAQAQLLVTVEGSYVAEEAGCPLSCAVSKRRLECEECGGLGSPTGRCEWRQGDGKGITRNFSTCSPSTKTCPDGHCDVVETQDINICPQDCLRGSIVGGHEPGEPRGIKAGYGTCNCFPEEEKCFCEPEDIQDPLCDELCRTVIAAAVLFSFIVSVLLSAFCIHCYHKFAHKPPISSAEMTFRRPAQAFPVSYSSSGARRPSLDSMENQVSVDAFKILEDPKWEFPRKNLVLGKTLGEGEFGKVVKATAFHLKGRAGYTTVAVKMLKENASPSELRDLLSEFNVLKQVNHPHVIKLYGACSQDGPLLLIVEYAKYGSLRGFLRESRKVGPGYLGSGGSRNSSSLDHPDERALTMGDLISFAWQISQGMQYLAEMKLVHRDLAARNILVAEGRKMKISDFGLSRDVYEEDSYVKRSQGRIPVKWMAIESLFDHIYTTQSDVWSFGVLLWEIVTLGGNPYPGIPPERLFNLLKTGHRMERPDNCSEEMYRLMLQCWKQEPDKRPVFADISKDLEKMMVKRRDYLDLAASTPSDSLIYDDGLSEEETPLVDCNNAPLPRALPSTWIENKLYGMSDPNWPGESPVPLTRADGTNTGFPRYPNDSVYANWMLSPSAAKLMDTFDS
Sequence of ITK (Q08881 whole entry): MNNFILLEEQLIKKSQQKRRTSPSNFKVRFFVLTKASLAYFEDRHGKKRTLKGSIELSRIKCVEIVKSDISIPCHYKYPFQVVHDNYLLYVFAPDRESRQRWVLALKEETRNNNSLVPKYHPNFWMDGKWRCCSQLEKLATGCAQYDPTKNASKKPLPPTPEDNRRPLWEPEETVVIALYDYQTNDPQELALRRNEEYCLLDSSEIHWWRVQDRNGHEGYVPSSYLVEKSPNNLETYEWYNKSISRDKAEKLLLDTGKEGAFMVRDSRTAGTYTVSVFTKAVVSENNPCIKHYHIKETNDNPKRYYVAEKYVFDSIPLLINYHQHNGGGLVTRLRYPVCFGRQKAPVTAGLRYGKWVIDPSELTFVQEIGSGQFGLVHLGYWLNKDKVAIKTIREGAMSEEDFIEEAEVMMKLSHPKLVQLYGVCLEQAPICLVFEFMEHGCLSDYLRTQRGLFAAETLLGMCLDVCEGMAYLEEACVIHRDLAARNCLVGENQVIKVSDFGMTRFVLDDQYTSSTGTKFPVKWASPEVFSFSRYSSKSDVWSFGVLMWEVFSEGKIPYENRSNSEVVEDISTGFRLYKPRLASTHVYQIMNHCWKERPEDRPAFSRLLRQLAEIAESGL

Turning to `Clc1cnc2nc1NCCCCCNCc1cccc(c1)N2` [Compound 8, 1^5-chloro-2,5,11-triaza-1(2,4)-pyrimidina-3(1,3)-benzenacyclodecaphane], the IC50 (commonly the point on the concentration scale where inhibition reaches its midpoint) at CDK9 (10 concentrations from 10 µM, three-fold dilutions) was < 100 nM; with A375, < 250 nM; in the test with HCC1187, 250 to 1000 nM; in the test with MV-4-11, < 250 nM; with Mia-Paca-2, < 250 nM. The inhibition (as a rule, the share of the control response that was lost under treatment) at 0.01 µM on CDK9 (selectivity panel Table 3, read-out: Inhibition rate CDK9) is > 50%; at CDK9 (read-out: Inhibition rate on CDK9 kinase activity) it was > 50%; on CDK7, < 25%; at ITK it was < 25%; on JAK1, < 25%; on JAK2, 25 to 49%. Moreover, the inhibition at 0.01 µM at JAK3, on LRRK2, on RET and on TYK2 was < 25% in each case.
